Where “and” joins values, the source holds several entries; their conditions need not be identical. Equal entries are not always repeated. Where two headings read alike, the source gives them in different places.
How the values were obtained:
[1] = Critical micelle concentration (CMC) by ANS fluorescence dye binding; type: physicochemical; conditions: in water at 25° C.
Protocol: See De Vendittis et al., Anal. Biochem. 1981, 115, 278-86. The molecule ANS has a weak fluorescence in detergent concentrations below CMC, but becomes highly fluorescent when incorporated into the hydrophobic micellar environment. […] The emission fluorescence intensities at 465 nm were recorded (λex=405 nm) on a DXT880 multiplate spectrofluorimeter (Beckman Coulter). The CMC is defined as the breakpoint in the fluorescence (FIG. 4).
See also De Vendittis et al., Anal. Biochem. 1981, 115, 278-86.

[2] = Hydrodynamic radius of detergent micelles (DynaPro/Titan instrument); type: physicochemical; conditions: measured at a concentration of 0.03% in water
bacteriorhodopsin (BR) = molecular target: T1, bacteriorhodopsin (BR) (Halobacterium salinarum, UniProt P02945); test: Stabilization of bacteriorhodopsin followed by UV-Vis absorption; set-up: species or system Halobacterium halobium; conditions: for stability of BR stored in the detergent: pH 5.6, RT, A1 for more than 5 months
T1 construct: BR was isolated from purple membrane of Halobacterium halobium (strain S9); endogenous in cells; host or cells: Halobacterium halobium strain S9, purple membrane
T1 sequence (P02945 14-262): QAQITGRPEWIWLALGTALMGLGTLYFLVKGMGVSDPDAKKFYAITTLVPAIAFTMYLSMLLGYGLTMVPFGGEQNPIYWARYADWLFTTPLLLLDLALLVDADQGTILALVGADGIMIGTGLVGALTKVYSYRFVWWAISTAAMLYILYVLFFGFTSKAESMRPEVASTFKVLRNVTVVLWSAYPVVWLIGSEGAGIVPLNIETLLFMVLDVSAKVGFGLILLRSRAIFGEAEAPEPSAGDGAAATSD
Excerpt: BR has a characteristic adsorption at visible wavelength (λmax: ˜550 nm in detergents) due to the bound retinal ligand in the interior of the transmembrane region, serving as an excellent system for the testing of designed amphiphiles.
BR was isolated from purple membrane of Halobacterium halobium (strain S9) and purified in 1.2% β-octyl-glycoside (OG) as reported in literature (Landau, E. M.; Rosenbusch, J. P. Proc. Natl. Acad. Sci. USA 1996, 93, 14532-5). […] After several dilution-concentration cycles, the final OG concentration was <1% of its CMC (0.53%). […] The UV-Vis absorption spectra of BR samples were recorded on a DXT880 multiplate spectrofluorimeter (Beckman Coulter).

MsbA [3] = molecular target: T2, MsbA (Salmonella typhimurium, UniProt P63359); test: Small-angle x-ray scattering of MsbA in detergent; conditions: separation of PDC signal from empty micelles
Excerpt: The facial amphiphiles self-assemble to smaller micelles and form smaller protein-detergent complexes (PDCs) than the conventional detergents. Because of these unique properties, facial amphiphiles can be used for SAX (small-angle x-ray scattering) studies of integral membrane proteins. A major challenge for applying SAXS to membrane protein structural analysis is the need to separate the scattering signal of the PDC from that of the empty micelles. With conventional head-to-tail detergents, it is difficult to achieve this goal because of the presence of the large detergent micelles and the characteristic second peak in the scattering intensity. Remarkably, the facial amphiphiles described herein allow one to separate the scattering signal of the PDC from that of the empty micelles.

cytochrome c oxidase ba3 = molecular target: T3, cytochrome c oxidase ba3 (Thermus thermophilus, UniProt P82543+Q5SJ79+Q5SJ80); test: Crystallization of cytochrome c oxidase ba3 by detergent exchange from β-DDM; conditions: pure detergent
T3 sequence (Q5SJ79 1-562): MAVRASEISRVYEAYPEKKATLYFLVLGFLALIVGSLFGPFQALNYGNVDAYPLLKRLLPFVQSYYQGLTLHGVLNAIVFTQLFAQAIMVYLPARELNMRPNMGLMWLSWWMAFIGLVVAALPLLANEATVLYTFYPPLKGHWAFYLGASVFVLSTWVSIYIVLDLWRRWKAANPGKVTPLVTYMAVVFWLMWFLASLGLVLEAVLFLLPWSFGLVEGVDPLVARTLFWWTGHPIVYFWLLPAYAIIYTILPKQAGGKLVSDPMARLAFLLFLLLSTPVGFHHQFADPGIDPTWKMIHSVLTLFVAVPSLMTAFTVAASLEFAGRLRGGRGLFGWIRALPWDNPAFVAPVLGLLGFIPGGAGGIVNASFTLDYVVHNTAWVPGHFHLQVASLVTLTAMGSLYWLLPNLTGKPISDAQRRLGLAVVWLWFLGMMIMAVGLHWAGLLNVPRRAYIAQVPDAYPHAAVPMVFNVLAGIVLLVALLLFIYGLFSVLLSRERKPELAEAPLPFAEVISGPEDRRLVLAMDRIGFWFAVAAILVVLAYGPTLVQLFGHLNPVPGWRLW
T3 sequence (Q5SJ80 1-168): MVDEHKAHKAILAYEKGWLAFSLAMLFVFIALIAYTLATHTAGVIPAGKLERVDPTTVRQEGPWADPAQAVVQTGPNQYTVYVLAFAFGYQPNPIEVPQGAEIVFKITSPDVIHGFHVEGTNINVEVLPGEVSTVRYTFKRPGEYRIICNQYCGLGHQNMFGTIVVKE
T3 sequence (P82543 1-34): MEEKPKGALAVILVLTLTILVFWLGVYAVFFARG
Protocol: The facial amphiphiles were evaluated in the crystallization of cytochrome c oxidase ba3 by detergent exchange from β-DDM. Several new crystal forms were obtained depending on which detergent was used, albeit in less than optimal diffraction quality (>6 Å). […] Crystals of human connexin 26 have also been obtained using the purely facial amphiphiles described herein.

[4] = known detergents, comparison values; cited from earlier work
[5] = molecular target: T4, MsbA from S. typhimurium (ST-MsbA) (Salmonella typhimurium, UniProt P63359); test: Linked enzyme ATPase assay of detergent-solubilized MsbA (activity and stability); type: biochemical
T4 construct: made in house
Protocol: The purified protein in the candidate detergent was assayed for activity by a standard linked enzyme ATPase assay to probe the protein stability.
MsbA was prepared from S. typhimurium as described previously (Reyes, C. L.; Chang, G. Acta Crystallograph Sect. F Struct. Biol. Cryst. Commun. 2005, 61, 655-8). […] The supernatant after centrifugation at 200,000 g for 45 min was subjected to Ni-affinity column for purification. The protein extraction and purity was evaluated by SDS-PAGE. MsbA was further purified by anion-exchange chromatography and desalting column for the stability evaluation which was followed by ATPase activity measurement.
ATPase activity was measured using an ATP-regenerating system described by Vogel and Steinhart (Biochemistry 1976, 15, 208-16), and modified by Urbatsch et al. (J. Biol. Chem. 1995, 270, 19383-90). Briefly, 1-2 μg of detergent solubilized MsbA was added to 100 μL of Linked Enzyme (LE) buffer at 37° C. containing 10 mM ATP, 12 mM MgCl2, 6 mM phosphoenolpyruvate (PEP), 1 mM NADH, 10 units of lactate dehydrogenase (LDH), 10 units of pyruvate kinase (PK), and 50 mM Tris-HCl (pH 7.5). ATP hydrolysis was measured as the decrease in absorbance of NADH at 340 nm using a DXT880 multiplate spectrofluorimeter (Beckman-Coulter). ATPase activity was calculated using the following equation: […], where ΔOD is the change in optical density and […].

MsbA [6] = molecular target: T2, MsbA; test: Detergent binding measurement using glycosidic colorimetric assay; set-up: made in house; species or system S. typhimurium; conditions: MsbA fractions from chromatography

T4 sequence (P63359 whole entry): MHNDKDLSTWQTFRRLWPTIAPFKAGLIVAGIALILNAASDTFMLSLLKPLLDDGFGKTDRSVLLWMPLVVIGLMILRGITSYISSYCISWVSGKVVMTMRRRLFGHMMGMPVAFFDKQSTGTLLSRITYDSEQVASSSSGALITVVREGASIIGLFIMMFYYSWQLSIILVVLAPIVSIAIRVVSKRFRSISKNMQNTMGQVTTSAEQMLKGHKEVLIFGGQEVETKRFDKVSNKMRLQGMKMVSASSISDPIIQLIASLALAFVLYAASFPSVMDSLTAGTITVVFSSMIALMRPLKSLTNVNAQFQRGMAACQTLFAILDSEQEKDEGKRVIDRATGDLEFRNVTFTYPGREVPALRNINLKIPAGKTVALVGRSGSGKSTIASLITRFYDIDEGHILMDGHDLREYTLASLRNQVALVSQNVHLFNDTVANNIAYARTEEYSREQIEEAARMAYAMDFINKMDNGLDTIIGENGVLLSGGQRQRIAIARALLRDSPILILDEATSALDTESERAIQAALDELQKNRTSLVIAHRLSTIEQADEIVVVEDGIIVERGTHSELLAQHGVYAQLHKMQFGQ
T2 sequence (P63359 whole entry): as above

CCC[C@@H](C)[C@H]1CC[C@H]2[C@@H]3[C@H](O[C@@H]4OC(CO)[C@@H](O[C@H]5OC(CO)[C@@H](O)[C@H](O)C5O)[C@H](O)C4O)C[C@@H]4CCCC[C@]4(C)[C@H]3C[C@H](O[C@@H]3OC(CO)[C@@H](O[C@H]4OC(CO)[C@@H](O)[C@H](O)C4O)[C@H](O)C3O)[C@]12C (stereo partly drawn) [Compound A1, 7α,12α-Di-(O-β-D-maltosyl)-cholane]
CMC [1]: 0.1 mM
CMC ([1]; ANS fluorescence assay): 0.01%
melting point: 188 to 190 °C
hydrodynamic radius of the micelle [2]: 3.0-3.1 nm and 3.0 nm
UV-vis spectral change of bacteriorhodopsin sample (bacteriorhodopsin (BR); over the course of almost one year): no observable UV-vis spectral change
stability of BR stored in the detergent (bacteriorhodopsin (BR)): remained completely stable

CCC[C@@H](C)[C@H]1CC[C@H]2[C@@H]3[C@H](OCCO[C@@H]4OC(CO)[C@@H](O[C@H]5OC(CO)[C@@H](O)[C@H](O)C5O)[C@H](O)C4O)C[C@@H]4CCCC[C@]4(C)[C@H]3C[C@H](OCCO[C@@H]3OC(CO)[C@@H](O[C@H]4OC(CO)[C@@H](O)[C@H](O)C4O)[C@H](O)C3O)[C@]12C (stereo partly drawn) [Compound A2, 7α,12α-Di-((O-β-D-maltosyl)-2-hydroxyethoxy)-cholane]
CMC ([1]; ANS fluorescence assay): 0.01%
hydrodynamic radius of the micelle [2]: 2.7 nm

CCC[C@@H](C)[C@H]1CC[C@H]2[C@@H]3[C@H](OCCO[C@@H]4OC(CO)[C@@H](O[C@H]5OC(CO)[C@@H](O)[C@H](O)C5O)[C@H](O)C4O)C[C@@H]4C[C@H](O)CC[C@]4(C)[C@H]3C[C@H](OCCO[C@@H]3OC(CO)[C@@H](O[C@H]4OC(CO)[C@@H](O)[C@H](O)C4O)[C@H](O)C3O)[C@]12C (stereo partly drawn) [Compound B1, 3α-hydroxyl-7α,12α-Di-((O-β-D-maltosyl)-2-hydroxyethoxy)-cholane]
CMC ([1]; ANS fluorescence assay): 0.02%
hydrodynamic radius of the micelle [2]: 2.2 nm
SAXS of MsbA prepared in the presence of the detergent (MsbA [3]): Favorable results

CCC[C@@H](C)[C@H]1CC[C@H]2[C@@H]3[C@H](OCCO[C@@H]4OC(CO)[C@@H](O)[C@H](O)C4O)C[C@@H]4C[C@H](O)CC[C@]4(C)[C@H]3C[C@H](OCCO[C@@H]3OC(CO)[C@@H](O)[C@H](O)C3O)[C@]12C (stereo partly drawn) [Compound B2, 3α-hydroxyl-7α,12α-Di-((O-D-glucosyl)-2-hydroxyethoxy)-cholane]
CMC ([1]; ANS fluorescence assay): 0.013%

CCCCCCCCCCCCO[C@@H]1O[C@H](CO)[C@@H](O[C@H]2O[C@H](CO)[C@@H](O)[C@H](O)[C@H]2O)[C@H](O)[C@H]1O [DDM, dodecyl-β-D-maltoside, reference compound]
hydrodynamic radius of the micelle [2]: 3.3-3.4 nm
crystallizability of cytochrome c oxidase ba3 (cytochrome c oxidase ba3): not crystallizable

CCCCCCCCO[C@@H]1O[C@H](CO)[C@@H](O)[C@H](O)[C@H]1O [OG, octyl-β-D-glucoside, reference compound]
CMC [4]: 0.53%
stability of BR stored in the detergent (bacteriorhodopsin (BR)): gradually denatured

CCCCCCCCCCCO[C@@H]1O[C@H](CO)[C@@H](O[C@H]2O[C@H](CO)[C@@H](O)[C@H](O)[C@H]2O)[C@H](O)[C@H]1O [β-UDM, Undecyl-β-D-maltoside]
loss of ATPase activity of MsbA ([5]; RT, in 2 days): more than 70%
ATPase activity of S. typhimurium MsbA, comparison of detergents ([5]; compared with β-UDM and 24 commercial detergents): highest ATPase activity among all 24 commercial detergents tested
MsbA stability in the detergent (protein solution, ATPase activity) ([5]; followed for more than a week at RT (about 23° C.)): collapsed to form visible aggregates
initial ATPase activity ([5]; freshly purified MsbA in the detergent, 37° C.): 1.19±0.03 μmol ATP·min^−1·mg^−1
detergent binding ratio (MsbA [6]): 219±13 mol/mol MsbA

Reference: patent US9085602B1, “Facial amphiphiles and methods of use” (The Scripps Research Institute, priority 2008, dated 2015)
